From PMC3466118 (Journal of medicinal chemistry, 2011)

Experiments:
[1] = system: acetylation of histone H4 in retinoic acid-differentiated SH-SY5Y cells; assay: Acetylation of H4 in differentiated SH-SY5Y cells; format: cell-based, human; conditions: 1 μM, also in cells stressed with compound 30
[2] = system: HepG2, Hela and SH-SY5Y carcinoma cell lines; assay: Antiproliferative activity across the three carcinoma cell lines; format: cell-based; conditions: Homo sapiens, read-out: EC50–48 h, span over the three cell lines
[3] = system: retinoic acid differentiated SH-SY5Y human neuroblastoma cells treated with 30; assay: Neuroprotection assay, cells stressed with compound 30; format: cell-based; conditions: for Neuroprotective effect: differentiated SH-SY5Y cells stressed with 100 μM of 30, 24 h, XTT
[4] = system: retinoic acid-differentiated SH-SY5Y neuroblastoma cells; assay: Cytotoxicity in unstressed differentiated SH-SY5Y cells; format: cell-based, human; conditions: 0.5–50 μM, 24 h, XTT
recombinant human HDAC8 [5] = biological target: T1, recombinant human HDAC8 (Homo sapiens, UniProt Q9BY41); assay: HDAC8 inhibition, fluorescent substrate Fluor de Lys
T1 sequence (Q9BY41 1-377): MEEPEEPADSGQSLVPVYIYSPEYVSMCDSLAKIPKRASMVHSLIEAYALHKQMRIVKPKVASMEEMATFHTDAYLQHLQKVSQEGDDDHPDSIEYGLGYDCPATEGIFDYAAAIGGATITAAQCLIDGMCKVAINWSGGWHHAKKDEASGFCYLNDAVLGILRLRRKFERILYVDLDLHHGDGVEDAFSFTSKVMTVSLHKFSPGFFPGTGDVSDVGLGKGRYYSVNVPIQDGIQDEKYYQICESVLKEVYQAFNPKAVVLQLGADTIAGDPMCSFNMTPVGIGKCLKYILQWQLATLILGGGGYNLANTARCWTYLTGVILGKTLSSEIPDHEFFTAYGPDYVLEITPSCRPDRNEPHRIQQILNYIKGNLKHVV

[6] = biological target: recombinant human HDAC3/NCoR2 (Homo sapiens, UniProt O15379); assay: HDAC3 inhibition, fluorescent substrate Boc-L-Lys
recombinant human HDAC3/NCoR2, sequence (O15379 whole entry): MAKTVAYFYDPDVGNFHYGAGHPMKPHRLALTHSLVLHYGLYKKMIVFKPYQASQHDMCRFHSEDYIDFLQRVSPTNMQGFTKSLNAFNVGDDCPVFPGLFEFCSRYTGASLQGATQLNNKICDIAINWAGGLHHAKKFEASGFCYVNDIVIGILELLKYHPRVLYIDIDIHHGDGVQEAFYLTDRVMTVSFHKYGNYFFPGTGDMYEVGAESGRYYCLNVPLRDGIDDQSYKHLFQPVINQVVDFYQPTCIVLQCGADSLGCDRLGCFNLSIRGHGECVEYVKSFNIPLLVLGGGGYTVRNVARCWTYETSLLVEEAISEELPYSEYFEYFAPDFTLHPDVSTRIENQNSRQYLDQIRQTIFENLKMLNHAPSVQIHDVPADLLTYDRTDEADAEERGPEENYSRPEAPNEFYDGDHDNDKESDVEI
recombinant human HDAC3/NCoR2, sequence (Q9Y618 395-489 partner limits assumed): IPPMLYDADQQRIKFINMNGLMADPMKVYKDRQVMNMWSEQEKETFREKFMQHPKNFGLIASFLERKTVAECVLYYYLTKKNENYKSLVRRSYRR

recombinant human HDAC8 [7] = biological target: T1, recombinant human HDAC8; conditions: cited from earlier work
[8] = system: cleavage of caspase 3 in HepG2 cells; assay: Western blot, activation/cleavage of caspase 3 in HepG2 cells; format: cell-based, human
[9] = system: acetylation of p53 in HepG2 cells; assay: Western blot, acetylation of p53 in HepG2 cells; format: cell-based, human; conditions: HepG2 total cell extracts

SMILES	Hyperacetylation of histone H4 [1]	EC50 [2] [µM]	Neuroprotective effect [3]	Cytotoxicity to differentiated neuroblastoma cells [4]	other results
[N-]=[N+]=NCc1cc(Cn2cc(NC(=O)CCCCCCC(=O)NO)cn2)cc(N=[N+]=[N-])c1 [3f, Octanedioic acid [1-(3-azido-5-azidomethylbenzyl)-1H-pyrazol-4-yl]amide hydroxyamide]	induce hyperacetylation of histone H4	24 to 36	protect cells from stress induced by compound 30 at low micromolar concentrations	subtle toxicity at 20 μM	Cell survival relative to vehicle ([3]; 0.5 and 1 μM, differentiated SH-SY5Y cells stressed with 100 μM of 30): more than doubles the amount of cell survival; Fold more active towards HDAC8 than HDAC3 (selectivity) (recombinant human HDAC8 [5]; HDAC8 vs HDAC3): 8 fold; IC50 ratio compound/SAHA, HDAC3 [6]: ND ^e 4.74
[N-]=[N+]=Nc1ccc(Cn2cc(NC(=O)CCCCCCC(=O)NO)cn2)cc1 [3c, Octanedioic acid [1-(4-azidobenzyl)-1H-pyrazol-4-yl]amide hydroxyamide]		10 to 23	non-neuroprotective	not toxic to the cells	Fold better potency than 3a, HDAC8 (recombinant human HDAC8 [5]; compared with 3a): 2.7 fold; Fold better potency than 3a, HDAC3 ([6]; compared with 3a): 2.0 fold
[N-]=[N+]=NCc1cc(COc2ccc(NC(=O)CCCCCCC(=O)NO)cc2)cc(N=[N+]=[N-])c1 [compound 1]					Fold decrease in HDAC8 inhibitory activity compared to SAHA (recombinant human HDAC8 [7]): 17 fold
O=C(CCCCCCC(=O)Nc1cnn(Cc2ccccc2)c1)NO [3a, Octanedioic acid (1-benzyl-1H-pyrazol-4-yl)amide hydroxyamide]		10 to 23	non-neuroprotective	not toxic to the cells	
[N-]=[N+]=NCc1cc(N=[N+]=[N-])cc(C(=O)Nc2ccc(-c3cc(C(=O)NCCCCCCC(=O)NO)no3)cc2)c1 [2b, 5-[4-(3-Azido-5-azidomethylbenzoylamino)phenyl]isoxazole-3-carboxylic acid (6-hydroxycarbamoylhexyl)amide]	induce hyperacetylation of histone H4	11 to 32	protect cells from stress induced by compound 30 at low micromolar concentrations		Cleavage of caspase 3 [8]: induced cleavage of caspase 3 by 14 h with maximum activation at 24 h; Acetylation of p53 [9]: neither SAHA nor 2b induced additional time and dose-dependent hyperacetylation of p53
[N-]=[N+]=Nc1ccc(-c2cc(C(=O)NCCCCCCC(=O)NO)no2)cc1 [2a, 5-(4-Azidophenyl)isoxazole-3-carboxylic acid(6-hydroxycarbamoylhexyl)amide]	induce hyperacetylation of histone H4		protect cells from stress induced by compound 30 at low micromolar concentrations	not overly cytotoxic	
